From patent publication US20220160703A1, “TUMOR-SELECTIVE COMBINATION THERAPY” (The Board of Regents of The University of Texas System, priority 2019, published 2022) come the findings set out here.

For the test, the system named is tumor specific T cells. Kind of test: IFNγ ELISPOT / CBA tumor-specific T cell response. It is filed as in vivo, mice. As to the method:
FIGS. 3A-E. Batf3-dependent dendritic cell-mediated T cell cross-priming is required for the antitumor effect of β-lap. […] IFNγ producing cells were determined by ELISPOT assay. […] (FIG. 3D) MC38 cells were subcutaneously transplanted into C57BL/6 WT (n=5/group) and Batf3^-/- mice (n=5/group for Batf3^-/- vehicle; n=6/group for Batf3^-/- β-lap), respectively. Tumor bearing mice were treated with β-lap (0.3 mg, i.t.) every other day for four times. Tumor growth was monitored twice a week. (FIG. 3E) MC38-OVA bearing mice (n=3/group) were treated with β-lap (0.3 mg, i.t.) for one time, and 4 days later, CD11c^+ dendritic cells were purified from the tumor drain lymph node, and cocultured with CD8 T cells isolated from the spleen of OT-1 transgenic mice. The activity of cross-priming of T cells was determined by the level of cell-secreted IFNγ via Cytometric Bead Array (CBA) mouse IFNγ assay. Data are shown as mean±SEM from three independent experiments. **P<0.01, ***P<0.001, ****P<0.0001 determined by unpaired student t-test (FIGS. 3A, 3B and 3E) or two-way ANOVA (FIGS. 3C and 3D). FIGS. 4A-F. Type I IFNs and TLR4/MyD88/signaling is required for the antitumor effect of β-lap and tumor specific CTLs. (FIG. 4A) MC38 tumor bearing C57BL/6 mice (n=5/group) were treated with β-lap (0.3 mg, i.t.) every other day for four times. Anti-IFNAR blocking antibodies (150 μg, i.t.) were administrated every four days for three times during the treatment. (FIG. 4B) The MC38 tumor bearing WT (n=5/group) and […]=4/group) C57BL/6 mice were treated with β-lap (0.3 mg, i.t.) every other day for four times. (FIG. 4C) MC38 tumor bearing WT (n=5/group) and Myd88^-/- (n=3/group) C57BL/6 mice were treated with β-lap (0.3 mg, i.t.) every other day for four times. (FIG. 4D) MC38 tumor bearing WT (n=5/group) and Tlr4^-/- (n=4/group) C57BL/6 mice were treated with β-lap (0.3 mg, i.t.) every other day for four times). (FIG. 4E) MC38 tumor bearing C57BL/6 mice (n=5/group) were treated with β-lap (0.3 mg, i.t.) every other day for four times. Anti-HMGB1 neutralized antibodies (200 μg, i.p) were administrated every three days for three times during the treatment. Tumor growth was monitored twice a week. (FIG. 4F) MC38 tumor bearing WT (n=4/group) or Tlr4^-/- (n=4/group) or MyD88-/- (n=6/group) C57BL/6 mice were treated with β-lap (0.3 mg, i.t.) every other day for four times. Anti-HMGB1 neutralized antibodies (200 μg, i.p) were administrated every three days for three times during the treatment. 12 days after the initial treatment, lymphocytes from the TdLN were isolated and stimulated with MC38 tumor cells irradiated with 60 Gy. IFNγ producing cells were determined by ELISPOTs assay. Data are shown as mean±SEM from two to three independent experiments. *P<0.05, **P<0.01, ***P<0.001, ****P<0.0001 determined by two-way ANOVA. […] (FIG. 6A) Treatment schema for local β-lap treatment based combinative therapy in FIG. 6B and FIG. 6C. (FIGS. 6B-C) MC38 tumor cells were s.c. inoculated into the flank of C57BL/6 mice (n=5/group). […] Tumor growth was monitored twice a week, and numbers of tumor free mice after treatment were shown. […] Tumor growth was monitored twice a week, and numbers of tumor free mice after treatment were shown. […] 12 days after first treatment, tumor infiltrating CD45^+ cells and lymphocytes were analyzed by flow cytometry (FIG. 6G), and OT-1 antigen specific T cells in the spleen were determined by IFNγ ELISPOT assay (FIG. 6H). […]

For `CC1(C)CCC2=C(O1)c1ccccc1C(=O)C2=O` [β-lap, β-lapachone], the “IFNγ-producing T cells” value (MC38, splenocytes 10 days after first β-lap, irradiated tumor cells) is “dramatically increased”. The “OT1 antigen specific T cells in tumor tissues and spleen” value (MC38-OVA, 12 days after initial treatment) is “neither β-lap or anti-PD-L1 monotherapy increased”. For the same compound, the “numbers of OTI specific T cells in spleen” value (MC38-OVA, OTI peptide stimulation) is listed as “much higher”. For the same compound, for the setting “MC38-OVA, β-lap 0.3 mg i.t. once, DCs 4 days later, CBA”, the “IFNγ production by OTI T cells primed by TdLN DCs” value is “more IFNγ production”. In addition, the “tumor-reactive T cells in TdLN” value (WT mice, MC38, 12 days after initial treatment) is recorded as “increased the number of tumor-reactive T cells”.
